Publication PMC5063900, “A phase 1 study of the safety, tolerability, pharmacokinetics, and pharmacodynamics of TAK-063, a selective PDE10A inhibitor” (Psychopharmacology, 2016)

Test: Treatment-emergent adverse events, phase 1 single-rising-dose study in healthy subjects
Type: in vivo, human
Protocol: Healthy Japanese and non-Japanese subjects between 18 and 55 years of age were recruited to participate in the study. Criteria for exclusion included prior treatment with any investigational compound within 30 days of the first TAK-063 dose, a positive test for drugs of abuse or nicotine, and an increased risk for suicide. […] Following a washout period of 7 days, subjects in cohort 3 (100 mg) received the same dose (100 mg) but under fed conditions.
The study assessed safety and tolerability in all subjects for the 4-day study duration. The primary endpoints were the percentage of subjects who experienced at least one treatment-emergent adverse event (TEAE), as well as the percentage of subjects who met predefined criteria for safety laboratory tests, vital sign measurements, and safety parameters following TAK-063 administration. The secondary endpoints were PK parameters for TAK-063 and M-I, assessing drug exposure at each dose, and the effect of food coadministration on TAK-063 PK. Exploratory endpoints included the effects of TAK-063 on domains of cognition as assessed by a computerized battery, CNS Vital Signs (CNSVS).
Adverse events, clinical laboratory tests, vital signs, 12-lead electrocardiograms (ECGs), and Columbia-Suicide Severity Rating Scale (C-SSRS) were all monitored. Intensity of AEs was classified as mild, moderate, or severe, and each AE was classified as to its relation to study drug.
Laboratory tests evaluated hematology, serum chemistry, urine, and hormone levels. Vital signs and ECGs were collected at screening, check-in, within 1 h predose, serially postdose, and at study exit, while the C-SSRS was administered at screening, check-in, and study exit. Any events reported on the C-SSRS and clinically significant laboratory abnormalities were reported as AEs.

[1] = Japanese subjects, TAK-063 Total (n = 30)
[2] = Japanese subjects, single 3 mg dose (n = 5)
[3] = Japanese subjects, single 10 mg dose (n = 5)
[4] = Japanese subjects, single 30 mg dose (n = 5)
[5] = Japanese subjects, single 100 mg dose (n = 5)
[6] = Japanese subjects, single 300 mg dose (n = 5)
[7] = Japanese subjects, single 1000 mg dose (n = 5)
[8] = all TAK-063-treated subjects, all cohorts
[9] = all subjects, TAK-063 Total (n = 66)
[10] = all subjects, single 3 mg dose (n = 11)
[11] = all subjects, single 10 mg dose (n = 11)
[12] = all subjects, single 30 mg dose (n = 11)

Structure (SMILES): COc1cn(-c2ccc(-n3cccn3)cc2F)nc(-c2ccnn2-c2ccccc2)c1=O [TAK-063]
- Severe AE: orthostatic hypotension, number of subjects (300 mg): 1
- Severe AE: somnolence, number of subjects (1000 mg): 2
- AEs of mild intensity (55/63 AEs): 87.3%
- Total incidence of TEAEs (Japanese subjects treated with TAK-063): 43.3%
- Adverse event: Dizziness [1]: 1 (3.3) n (%)
- Adverse event: Epistaxis [1]: 1 (3.3) n (%)
- Adverse event: Headache [1]: 1 (3.3) n (%)
- Adverse event: Muscle tightness [1]: 1 (3.3) n (%)
- Adverse event: Nausea [1]: 1 (3.3) n (%)
- Adverse event: Orthostatic hypotension [1]: 4 (13.3) n (%)
- Adverse event: Orthostatic tachycardia [1]: 5 (16.7) n (%)
- Adverse event: Somnolence [1]: 10 (33.3) n (%)
- Adverse event: Vomiting [1]: 2 (6.7) n (%)
- Adverse event: Dizziness [2]: 0 n (%)
- Adverse event: Epistaxis [2]: 0 n (%)
- Adverse event: Headache [2]: 0 n (%)
- Adverse event: Muscle tightness [2]: 0 n (%)
- Adverse event: Nausea [2]: 0 n (%)
- Adverse event: Orthostatic hypotension [2]: 0 n (%)
- Adverse event: Orthostatic tachycardia [2]: 0 n (%)
- Adverse event: Somnolence [2]: 0 n (%)
- Adverse event: Vomiting [2]: 0 n (%)
- Adverse event: Dizziness [3]: 0 n (%)
- Adverse event: Epistaxis [3]: 0 n (%)
- Adverse event: Headache [3]: 0 n (%)
- Adverse event: Muscle tightness [3]: 0 n (%)
- Adverse event: Nausea [3]: 0 n (%)
- Adverse event: Orthostatic hypotension [3]: 0 n (%)
- Adverse event: Orthostatic tachycardia [3]: 0 n (%)
- Adverse event: Somnolence [3]: 0 n (%)
- Adverse event: Vomiting [3]: 0 n (%)
- Adverse event: Dizziness [4]: 0 n (%)
- Adverse event: Epistaxis [4]: 1 (20.0) n (%)
- Adverse event: Headache [4]: 0 n (%)
- Adverse event: Muscle tightness [4]: 1 (20.0) n (%)
- Adverse event: Nausea [4]: 0 n (%)
- Adverse event: Orthostatic hypotension [4]: 0 n (%)
- Adverse event: Orthostatic tachycardia [4]: 1 (20.0) n (%)
- Adverse event: Somnolence [4]: 1 (20.0) n (%)
- Adverse event: Vomiting [4]: 0 n (%)
- Adverse event: Dizziness [5]: 0 n (%)
- Adverse event: Epistaxis [5]: 0 n (%)
- Adverse event: Headache [5]: 1 (20.0) n (%)
- Adverse event: Muscle tightness [5]: 0 n (%)
- Adverse event: Nausea [5]: 0 n (%)
- Adverse event: Orthostatic hypotension [5]: 1 (20.0) n (%)
- Adverse event: Orthostatic tachycardia [5]: 0 n (%)
- Adverse event: Somnolence [5]: 4 (80.0) n (%)
- Adverse event: Vomiting [5]: 1(20.0) n (%)
- Adverse event: Dizziness [6]: 0 n (%)
- Adverse event: Epistaxis [6]: 0 n (%)
- Adverse event: Headache [6]: 0 n (%)
- Adverse event: Muscle tightness [6]: 0 n (%)
- Adverse event: Nausea [6]: 0 n (%)
- Adverse event: Orthostatic hypotension [6]: 1 (20.0) n (%)
- Adverse event: Orthostatic tachycardia [6]: 1 (20.0) n (%)
- Adverse event: Somnolence [6]: 2 (40.0) n (%)
- Adverse event: Vomiting [6]: 0 n (%)
- Adverse event: Dizziness [7]: 1 (20.0) n (%)
- Adverse event: Epistaxis [7]: 0 n (%)
- Adverse event: Headache [7]: 0 n (%)
- Adverse event: Muscle tightness [7]: 0 n (%)
- Adverse event: Nausea [7]: 1 (20.0) n (%)
- Adverse event: Orthostatic hypotension [7]: 2 (40.0) n (%)
- Adverse event: Orthostatic tachycardia [7]: 3 (60.0) n (%)
- Adverse event: Somnolence [7]: 3 (60.0) n (%)
- Adverse event: Vomiting [7]: 1 (20.0) n (%)
- Subjects experiencing drug-related AEs (across all cohorts): 32 of 66
- Total number of drug-related AEs (across all cohorts): 57
- Drug-related AE: orthostatic hypotension, incidence [8]: 10.6%
- Drug-related AE: orthostatic tachycardia, incidence [8]: 19.7%
- Drug-related AE: somnolence, incidence [8]: 33.3%
- Adverse event: Anxiety [9]: 1 (1.5) n (%)
- Adverse event: Blurred vision [9]: 1 (1.5) n (%)
- Adverse event: Dizziness [9]: 3 (4.5) n (%)
- Adverse event: Dysarthria [9]: 1(1.5) n (%)
- Adverse event: Epistaxis [9]: 1 (1.5) n (%)
- Adverse event: Headache [9]: 2 (3.0) n (%)
- Adverse event: Hypotension [9]: 1 (1.5) n (%)
- Adverse event: Muscle tightness [9]: 1 (1.5) n (%)
- Adverse event: Nausea [9]: 3 (4.5) n (%)
- Adverse event: Orthostatic hypotension [9]: 7 (10.6) n (%)
- Adverse event: Orthostatic tachycardia [9]: 13 (19.7) n (%)
- Adverse event: Somnolence [9]: 22 (33.3) n (%)
- Adverse event: Vomiting [9]: 3 (4.5) n (%)
- Adverse event: Anxiety [10]: 0 n (%)
- Adverse event: Blurred vision [10]: 0 n (%)
- Adverse event: Dizziness [10]: 0 n (%)
- Adverse event: Dysarthria [10]: 0 n (%)
- Adverse event: Epistaxis [10]: 0 n (%)
- Adverse event: Headache [10]: 0 n (%)
- Adverse event: Hypotension [10]: 0 n (%)
- Adverse event: Muscle tightness [10]: 0 n (%)
- Adverse event: Nausea [10]: 0 n (%)
- Adverse event: Orthostatic hypotension [10]: 0 n (%)
- Adverse event: Orthostatic tachycardia [10]: 2 (18.2) n (%)
- Adverse event: Somnolence [10]: 0 n (%)
- Adverse event: Vomiting [10]: 0 n (%)
- Adverse event: Anxiety [11]: 0 n (%)
- Adverse event: Blurred vision [11]: 0 n (%)
- Adverse event: Dizziness [11]: 0 n (%)
- Adverse event: Dysarthria [11]: 0 n (%)
- Adverse event: Epistaxis [11]: 0 n (%)
- Adverse event: Headache [11]: 0 n (%)
- Adverse event: Hypotension [11]: 0 n (%)
- Adverse event: Muscle tightness [11]: 0 n (%)
- Adverse event: Nausea [11]: 0 n (%)
- Adverse event: Orthostatic hypotension [11]: 0 n (%)
- Adverse event: Orthostatic tachycardia [11]: 0 n (%)
- Adverse event: Somnolence [11]: 0 n (%)
- Adverse event: Vomiting [11]: 0 n (%)
- Adverse event: Anxiety [12]: 0 n (%)
- Adverse event: Blurred vision [12]: 0 n (%)
- Adverse event: Dizziness [12]: 1 (9.1) n (%)
- Adverse event: Dysarthria [12]: 0 n (%)
- Adverse event: Epistaxis [12]: 1 (9.1) n (%)
- Adverse event: Headache [12]: 0 n (%)
- Adverse event: Hypotension [12]: 0 n (%)
- Adverse event: Muscle tightness [12]: 1 (9.1) n (%)
- Adverse event: Nausea [12]: 2 (18.2) n (%)
- Adverse event: Orthostatic hypotension [12]: 0 n (%)
- Adverse event: Orthostatic tachycardia [12]: 1 (9.1) n (%)
